Assay results: paper PMC10883292, “Estrogen Receptor Mutations as Novel Targets for Immunotherapy in Metastatic Estrogen Receptor–positive Breast Cancer” (Cancer Research Communications, 2024)

Columns and labels:
[1] = system: peptide-specific CD8+ T cells from PBMC of healthy female HLA-A2 positive donors; assay: Peptide-specific CTL tetramer assay and expansion; type: cell-based, human; details: for average frequency fold change (vs. pre-expansion): after CTL expansion with peptide-pulsed DCs, IL7, IL2; for average frequency fold change (vs. pre-expansion) / average frequency of peptide-specific CTLs in peripheral blood: tetramer staining; for average frequency of peptide-specific CTLs in peripheral blood: pre-expansion, PBMC of healthy females, 3 donors; for tetramer expansion: post- vs pre-expansion, in words
Excerpt: Healthy donor peripheral blood samples were purchased from the local blood bank and used under an MD Anderson Cancer Center Institutional Review Board–approved protocol. Because the samples came from deidentified healthy donors, the Institutional Review Board determined that informed consent was not required. Peripheral blood mononuclear cells (PBMC) were isolated from buffy coats of healthy female HLA-A2 positive donors by Ficoll/Histopaque (Sigma-Aldrich) density gradient centrifugation and split equally into two groups. One group of PBMC was used to assess the pre-expansion frequency of the peptide-specific CTLs. These cells were immediately stained with FITC-conjugated anti-CD3 and APC-H7–conjugated anti-CD8 to select for CD8^+ T cells. Pacific blue (PB)-conjugated anti-CD4, anti-CD14, anti-CD16, anti-CD19, and anti-CD56 (BD Biosciences) were used as a dump gate to gate out other immune cell types; PE-conjugated mutant peptide and APC-conjugated wild-type peptide tetramers (Baylor College of Medicine, MHC tetramer core, Houston, TX) were used to enumerate the percentage of peptide-specific CD8^+ T cells present in healthy PBMCs. The analysis was performed using flow cytometry.
The second group of donor PBMC was used to assess the expansion potential of the peptide-specific CTLs. To expand peptide-specific CTLs, dendritic cells (DC) were matured from adherent monocytes by the addition of GMCSF (100 ng/mL, Sanoti), IL4 (50 ng/mL, rhIL4, Tonbo Biosciences), and TNFα (25 ng/mL, BioLegend). Lymphocytes from the same donor were separated and cocultured with 40 µg/mL of mutant and wild-type peptides. After 5 days, DCs were harvested and cocultured with autologous CD8^+ T cells for an additional 7 days. The cocultured cells were supplemented with IL7 (10 ng/mL; BioLegend) for CTL activation and IL2 (25 ng/mL; R&D Systems) for CTL expansion. After CTL activation and expansion, cells were stained and analyzed as described above.
FIGURE 3 Peptide-specific expansion of CD8^+ T cells. PBMCs from healthy donors were isolated and expanded as described in the Materials and Methods. Tetramer staining was performed pre- and post-expansion to quantify frequencies of peptide-specific CD8^+ T cells. A, Wildtype-1, E380Q. B, Wildtype-2, Y537S, D538G. Data represents three independent experiments, from 3 separate donors, performed in triplicate. Statistical significance was determined via comparison of pre-expansion versus post-expansion CD8^+tetramer^+ population using unpaired Student t test. *, P < 0.05.

[2] = target: T1, HLA-A*0201 on T2 cells (Homo sapiens, UniProt P04439, D140Y/D185E/D98H/E176V/E277Q/G131W/G231S/I119V/I121R/I166T/I218V/L300P/L318F/N151K/N90K/P208A/P217A/Q86G/Q94H/R138H/R169H/T345S); assay: T2 dissociation (stability) assay; type: cell-based; details: peptide:HLA-A*0201 dissociation; T2 cells pulsed 8–12 hours, washed; MFI normalized to time 0; linear regression; three independent experiments in triplicate
T1 construct: T2 cells were pulsed with indicated peptides for 8–12 hours, washed, and then stained for surface HLA-A*0201 expression; host or cells: T2 cells
Protocol: T2 binding assays were performed as described previously ([23]). […] Surface expression of HLA-A*0201 in T2 cells was determined by staining with an anti-HLA-A2 mAb (BB7.2, BD Biosciences). The median fluorescence intensity (MFI) was measured using a FACSCando II (BD Biosciences). The peptide half-life was calculated by linear regression using GraphPad Prism software.
FIGURE 2 Kinetics of peptide: HLA-A*0201 dissociation. T2 cells were pulsed with indicated peptides for 8–12 hours, washed, and then stained for surface HLA-A*0201 expression at indicated timepoints for wildtype-1 and E380Q (A), wildtype-2 and Y537S (B), wildtype-2 and D538G (C). MFI for each timepoint was normalized to initial staining (time = 0). Linear regression analysis was used to plot lines of best fit for each individual peptide, and half-life for each peptide is shown in Table 2. Data are pooled from three independent experiments performed in triplicate.

[3] = system: peptide-pulsed T2 cells; assay: Calcein-AM release cytotoxicity assay, peptide-pulsed T2 cells; type: cell-based, human; details: 20:1 effector:target ratio, 4-hour calcein-AM release, T2 cells pulsed with corresponding peptide, peptide-specific CTLs from healthy female donors
Protocol: Healthy donor lymphocytes and DCs were cocultured in 6-well plates supplemented with IL7 and IL2, as described above. On days 12–14, cultured peptide-specific CTLs were harvested and peptide-specific cytotoxicity was assessed using a standard 4-hour Calcein-AM (Sigma-Aldrich) release assay as described previously ([24]). Briefly, target cells, including T2 cells pulsed with mutant and wild-type peptides, were labeled with 5 µg/mL calcein-AM for 15 minutes in the dark. After two washes, cells were adjusted to 2 × 10^5/mL, plated on a Terasaki plate, and cocultured with peptide-specific CTLs at effector:target ratios of 20:1 and 5:1. After 4 hours of incubation, Trypan blue was added to quench the reaction. The fluorescence was measured using a Cytation 3 Imaging Reader (BioTek). The percentage of specific cell lysis was calculated using the following formula: […]
T2 cells were pulsed with corresponding peptides and labeled with calcein-AM. Cytotoxicity was determined by a standard calcein-AM release assay. Wildtype-1 (A), E380Q (B), Wildtype-2 (C), Y537S (D), D538G (E). Non-pulsed T2 cells were used as negative controls. Statistical significance was determined via unpaired Student t test. Data represent the average of three to four experiments from separate healthy female donors run in triplicate. *, P < 0.05; ***, P < 0.001.

Sequence	average frequency fold change (vs. pre-expansion) [1] [fold]	average frequency of peptide-specific CTLs in peripheral blood [1] [%]	Half-Life [2] [h]	specific cytotoxicity [3] [%]	tetramer expansion [1]
LLQCAWLEI [E380Q, ESR1-derived nonameric peptide with E380Q mutation]	5.77	0.03	7.2	28.45	
PLYDLLLEM [Wildtype-2, wild-type ESR1-derived nonameric peptide associated with Y537S and D538G]			5.9	13.27	modest expansion
LLECAWLEI [Wildtype-1, wild-type ESR1-derived nonameric peptide associated with E380Q]			5.4	25.99	did not show tetramer expansion
PLYGLLLEM [D538G, ESR1-derived nonameric peptide with D538G mutation]	4.31	0.17	6.0	30.48	
PLSDLLLEM [Y537S, ESR1-derived nonameric peptide with Y537S mutation]	4.85	0.18	6.2	30.03	
